These are literature values, as cited in US20210393559A1, “Compositions and Methods of Use of Beta-Hydroxy-Beta-methylbutyrate (HMB) for Improving Muscle Mass, Strength and Muscular Function Without Exercise” (Metabolic Technologies, LLC, priority 2020, published 2021).

In series [1] the target is T1, 1-alpha, 25-Vitamin D hydroxylase (Homo sapiens, UniProt O15528).
T1 sequence (O15528 1-508): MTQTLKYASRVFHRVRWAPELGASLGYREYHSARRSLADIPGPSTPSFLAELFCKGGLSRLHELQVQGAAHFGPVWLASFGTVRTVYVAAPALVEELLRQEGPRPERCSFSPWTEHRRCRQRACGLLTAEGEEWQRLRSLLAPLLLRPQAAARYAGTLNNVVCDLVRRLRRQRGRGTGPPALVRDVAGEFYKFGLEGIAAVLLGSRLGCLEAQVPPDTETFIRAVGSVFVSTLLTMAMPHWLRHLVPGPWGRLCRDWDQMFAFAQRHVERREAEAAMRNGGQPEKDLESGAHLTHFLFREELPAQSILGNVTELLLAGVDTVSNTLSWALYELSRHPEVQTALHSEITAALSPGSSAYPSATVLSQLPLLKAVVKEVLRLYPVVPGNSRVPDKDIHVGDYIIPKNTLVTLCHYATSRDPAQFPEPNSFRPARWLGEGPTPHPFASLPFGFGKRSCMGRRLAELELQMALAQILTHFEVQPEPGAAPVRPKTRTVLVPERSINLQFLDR
As to conditions: human vascular smooth muscle.

For series [2] the following is noted: after HMB is fed.
For series [3] the following is noted: healthy young or old adults.

In the case of `C=C1CC[C@H](O)C/C1=C/C=C1\CCC[C@]2(C)[C@@H]([C@H](C)CCCC(C)(C)O)CC[C@@H]12` [25OH-VitD3], the Km in series [1] is reported as 25 ng/mL.

On to β-hydroxy-β-methylbutyrate [HMB], for which the “loss of HMB to urine” value in series [2] is recorded as 20-50%. The side effects result in series [3] is “no side effects”.
